Data: patent publication US20050080113A1, “Medicinal compositions” (priority 2001, published 2005)
Values belong to the compound of their own block, whether it stands above or below them.

Key:
TNF-α production = experiment: Measurement of inhibiting activity of TNF-α production in LPS-stimulated THP-1 cells, ELISA (Reference Example C 2); assay type: cell-based; settings: Homo sapiens, LPS 5 μg/mL, 4 hours, read-out: IC50 (concentration necessary for inhibiting TNF-α production by 50%)
Method: Measurement of Inhibiting Activity of TNF-α Production
After THP-1 cells which had been cultured on PRMI 1640 medium (manufactured by Life Technologies, Inc.) containing 1% inactivated bovine fetal serum (manufactured by Life Technologies, Inc., U.S.A.) and 10 mM HEPES (pH 7.5) seeded on a 96 well-plate to 1×10^5 cells/well, 1 μL test compound dissolved in DMSO was added. After incubation at 37° C. for 1 hour in a CO2 incubator, LPS (Wako Pure Chemicals) was added to the final concentration 5 μg/mL. After cultured at 37° C. for 4 hours in a CO2 incubator, the supernatant was obtained by centrifugation. The concentration of TNF-α in the supernatant was measured by ELISA (R&D Systems, Quantikine Kit). The concentration (IC50 value) of the test compound necessary for inhibiting TNF-α production by 50% was calculated using PRIMS 2.01 (Graphpad Software).

human p38 MAP kinase = biological target: T1, human p38 MAP kinase (Homo sapiens, UniProt Q16539); experiment: Measurement of the enzyme inhibitory activity of active form p38 MAP kinase, 32P uptake into Myelin Basic Protein (Reference Example C 1); assay type: biochemical; settings: Myelin Basic Protein substrate, 30° C., 60 minutes, read-out: IC50 (concentration necessary for inhibiting uptake of 32P into an acid insoluble fraction by 50%)
T1 construct: made in house; host or cells: Sf-21 insect cells, baculovirus (BAC-HP38 co-infected with BAC-caMKK3)
Method: The genetic manipulations described below were according to a method described in the book (Maniatis et al., Molecular Cloning, Cold Spring Harbor Laboratory, 1989) or methods described in the protocols attached to the reagents.
(1) Cloning of Human p38 MAP Kinase Gene and Preparation of Recombinant Baculovirus
Cloning of human p38 MAP kinase gene was performed by a PCR method using a primer set P38 U: 5′-[…] 3′ [SEQ ID NO:1] and PAG-L: 5′-[…]-3′ [SEQ ID NO:2] made by the use of kidney cDNA (Toyobo, QUICK-Clone cDNA) as a template and referring to the base sequence of p38 MAP kinase gene reported by Han et al. (Science 265 (5173), 808 811 (1994)).
A PCR reaction was performed by a Hot Start method using AmpliWax PCR Gem 100 (Takara Shuzo). As the lower mixed solution, 2 μL 10×LA PCR Buffer, 3 μL 2.5 mM dNTP solution, each 2.5 μL of 12.5 μM primer solutions, and 10 μL sterile distilled water were mixed. As the upper mixed solution, 1 μL human cardiac cDNA (1 ng/mL) as a template, 3 μL 10×LA PCR Buffer, 1 μL 2.5 mM dNTP solution, 0.5 μL TaKaRa LA Taq DNA polymerase (Takara Shuzo), and 24.5 μL sterile distilled water were mixed. One AmpliWax PCR Gem 100 (Takara Shuzo) was added to the prepared lower mixed solution and the mixture was treated at 70° C. for 5 min and for 5 min in an ice and, thereafter, the upper mixed solution was added to prepare a reaction solution for PCR. […]

[1] = system: osteoclast formation in mouse bone marrow cells; experiment: Inhibitory action of osteoclast formation (TRAP positive multinucleated cells, bone marrow cell culture), Example 2; assay type: cell-based; settings: for Osteoclast count (/well): 6 days, TRAP positive multinucleated cells, average ± standard deviation (N = 4-5)
Method: Bone marrow cells were collected from the tibia of 8-week-old male ddY mouse and suspended in αMEM medium containing 10% FBS and sown in a 24 well plate at a density of 10^6 cells/0.5 ml/well. After static culture overnight, the medium was changed to the above-mentioned medium containing 10^−8 M 1α, 25 (OH)2D3 or Reference Example D compound 16 1 at 0.01, 0.1, 1 or 10 μM, respectively and further cultured for 6 days. After the completion of the culture, the cells were fixed and subjected to staining of tartrateresistant acid phosphatase (TRAP), which is a differentiation index of osteoclast, and TRAP positive multinucleated cells with three or more nuclei were counted as osteoclasts with a microscope.

[2] = Test using rat yeast-induced pain model animal (pain threshold, pressure device), Example 1; assay type: in vivo; settings: oral, pain threshold 2 hours after administration
Method: Male Sprague-Dawley rats (4 week-old, Clear Japan) were used. A 20% yeast physiological saline solution (0.1 ml) was subcutaneously injected into right hind pedal sole to induce inflammation in the right hind pedal sole. One hour later, 0.5% aqueous methyl cellulose or Reference Example D compound 16 1 suspended in 0.5% aqueous methyl cellulose was orally administered (0.5 ml/100 g body weight). After 2 hours from sample administration, pain threshold value was measured based on false escape reaction using a pressure device. A group contained 6 rats.

T1 sequence (Q16539 whole entry): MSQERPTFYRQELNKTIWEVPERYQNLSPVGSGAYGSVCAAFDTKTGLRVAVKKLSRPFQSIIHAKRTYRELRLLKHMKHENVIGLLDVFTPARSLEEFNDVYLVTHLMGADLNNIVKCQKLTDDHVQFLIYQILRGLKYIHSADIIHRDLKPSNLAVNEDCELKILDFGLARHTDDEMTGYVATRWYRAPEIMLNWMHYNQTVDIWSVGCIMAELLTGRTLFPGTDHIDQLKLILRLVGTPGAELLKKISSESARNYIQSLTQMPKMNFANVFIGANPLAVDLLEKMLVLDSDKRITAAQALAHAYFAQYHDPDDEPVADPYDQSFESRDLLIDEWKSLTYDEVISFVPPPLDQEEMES

IC50 (TNF-α production): 140 nM
melting point: 177 to 178 °C
SMILES: CNc1nc(-c2ccc(OC)cc2)c(-c2ccncc2)s1 [13-16, N-methyl [4-(4-methoxyphenyl)-5-(4-pyridyl)-1,3-thiazol-2-yl]amine]

IC50 (TNF-α production): 180 nM
melting point: 224 to 225 °C
SMILES: CNc1nc(-c2ccc(Cl)cc2)c(-c2ccncc2)s1 [13-70, N-methyl [4-(4-chlorophenyl)-5-(4-pyridyl)-1,3-thiazol-2-yl]amine]

IC50 (human p38 MAP kinase): 630 nM
melting point: 172 to 173 °C
SMILES: CNc1nc(-c2ccc3c(c2)CCC3)c(-c2cccnc2)s1 [13-74]

IC50 ([1]; 144 h, mouse bone marrow cells, 1α,25(OH)2D3, 6 days culture, read-out: IC50 value against formation of osteoclast): 300 nM
SMILES: CCc1nc(-c2cccc(C)c2)c(-c2ccnc(NC(=O)c3ccccc3)c2)s1 [D 16-1, N-[4-[2-ethyl-4-(3-methylphenyl)-1,3-thiazol-5-yl]-2-pyridyl]benzamide]
number of osteoclasts ([1]; 0.01, 0.1, 1 or 10 μM): decreased in a dose-dependent manner
formation of osteoclast ([1]; at 10 μM): barely observed
Osteoclast count (/well) ([1]; concentration 0.01 μM, mouse bone marrow cells): 183.8 ± 2.9 /well
Osteoclast count (/well) ([1]; concentration 0.1 μM, mouse bone marrow cells): 140.8 ± 7.6 /well
Osteoclast count (/well) ([1]; concentration 1 μM, mouse bone marrow cells): 72.4 ± 4.4 /well
Osteoclast count (/well) ([1]; concentration 10 μM, mouse bone marrow cells): 0.6 ± 0.4 /well
concentration from which the action on osteoclast number was found significantly ([1]; mouse bone marrow cells, 0.01-10 μM tested): 0.1 µM
antinociceptive effect [2]: dose-dependent antinociceptive effect
minimum effective dose (antinociceptive effect) [2]: 10 mg/kg
